Test results taken from BindingDB's records for doi:10.7270/Q2H993J6 (Pcmd, 2008).

What follows are molecules tested against Coagulation factor XI (Homo sapiens, UniProt P03951) (assay: factor XIa inhibitor concentration-response – biochemical, hits from 1536-well screen, dose response (AID 846)). Details: pH 7.4; 23 °C.
Chain of Coagulation factor XI (P03951 19-387 limits assumed): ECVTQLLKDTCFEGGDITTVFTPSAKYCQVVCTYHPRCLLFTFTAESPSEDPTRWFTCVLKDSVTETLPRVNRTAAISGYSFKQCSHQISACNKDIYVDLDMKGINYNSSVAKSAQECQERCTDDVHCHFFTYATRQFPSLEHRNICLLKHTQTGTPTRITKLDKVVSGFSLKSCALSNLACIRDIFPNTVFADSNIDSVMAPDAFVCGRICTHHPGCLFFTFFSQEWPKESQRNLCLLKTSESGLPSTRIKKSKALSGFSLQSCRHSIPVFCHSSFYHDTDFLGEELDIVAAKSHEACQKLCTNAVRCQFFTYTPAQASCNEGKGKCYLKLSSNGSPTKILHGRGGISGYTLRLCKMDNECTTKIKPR
Chain of Coagulation factor XI (P03951 388-625 limits assumed): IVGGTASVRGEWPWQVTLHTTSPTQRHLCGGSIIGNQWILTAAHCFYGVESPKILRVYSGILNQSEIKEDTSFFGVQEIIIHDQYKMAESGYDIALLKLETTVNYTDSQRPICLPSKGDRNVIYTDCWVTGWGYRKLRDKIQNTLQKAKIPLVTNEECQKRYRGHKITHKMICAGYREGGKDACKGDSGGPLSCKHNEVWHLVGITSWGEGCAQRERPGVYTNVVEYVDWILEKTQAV
Work on CC(C)(C)C(=O)Nc1ccc(C(=O)NN=Cc2ccccc2OC(=O)c2ccccc2)cc1 [SMR000174811] yielded an IC50 of over 50 µM.
With CCOc1ccc(-c2c(C)[n+](-c3ccc(OCC)cc3)c3n2CCCCC3)cc1 the IC50 was 0.958 µM.
Molecule Cc1cc(F)ccc1S(=O)(=O)Nc1ncnc2sc3c(c12)CCC3 [N-(7,8-dihydro-6H-cyclopenta[4,5]thieno[1,2-c]pyrimidin-1-yl)-4-fluoro-2-methylbenzenesulfonamide] has an IC50 of over 50 µM.
In the case of CCOC(=O)c1c(C)n(C)c2ccc(OC)c(NC(=O)CCN3CCC(Cc4ccccc4)CC3)c12 [ethyl 5-methoxy-1,2-dimethyl-4-[3-[4-(phenylmethyl)piperidin-1-yl]propanoylamino]indole-3-carboxylate], the IC50 is reported as over 50 µM.
Work on O=C(NNC(=O)c1cccs1)c1ccc(Br)o1 [5-bromo-N'-(thiophene-2-carbonyl)furan-2-carbohydrazide] yielded an IC50 of 8.51 µM.
For O=C(COC(=O)CCc1nc2ccccc2c(=O)[nH]1)Nc1ccc(Cl)cn1 [[2-[(5-chloropyridin-2-yl)amino]-2-oxoethyl] 3-(4-oxo-1H-quinazolin-2-yl)propanoate], the IC50 was over 50 µM.
In the case of Cc1nc2ccccc2c(=O)n1NC(=O)c1cc(Br)ccc1Cl, the IC50 is reported as over 50 µM.
Work on CC1=CC(=NNC(=S)Nc2cccnc2)CC(C)(C)C1 [SMR000385739] yielded an IC50 of over 50 µM.
CNC(=S)N1CCC(NC(=O)c2ccco2)CC1 [N-[1-(methylcarbamothioyl)piperidin-4-yl]furan-2-carboxamide] was tested, and the IC50 was over 50 µM.
Molecule C=CCNC(=S)N[N-][CH+]c1ccc(C)c([N+](=O)[O-])c1 [SMR000228955] has an IC50 of over 50 µM.
Molecule Cn1nnc(CC[N+](C)(C)C)n1 [SMR000427769] has an IC50 of over 50 µM.
Molecule COc1ccc(C(=O)NN=Cc2cc3ccccc3[nH]c2=O)cc1 has an IC50 of over 50 µM.
With O=C(Oc1ccc2ccc(=O)oc2c1)c1cccs1 [2-thiophenecarboxylic acid (2-oxo-1-benzopyran-7-yl) ester] the IC50 was 2.68 µM.
With CC1(C)[N-]c2ccc([N+](=O)[O-])c(N)c2[N+]1=O [MLS001012383] the IC50 was over 50 µM.
O=C(O)c1ccc(/C=C2\SC(=S)N(Nc3ccccc3)C2=O)cc1 [4-[4-Oxo-3-phenylamino-2-thioxo-thiazolidin-(5Z)-ylidenemethyl]-benzoic acid] was tested, and the IC50 was over 50 µM.
O=C(Oc1ccc(=O)n(-c2ccccc2)n1)c1cccc(Cl)c1 [(6-oxidanylidene-1-phenyl-pyridazin-3-yl) 3-chloranylbenzoate] was tested, and the IC50 was 1.71 µM.
In the case of O=C1c2ccc(-c3ccc4c(c3)C(=O)N(CCO)C4=O)cc2C(=O)N1CCO [SMR000282940], the IC50 is reported as over 50 µM.
For CC(=O)c1ccc(NC(S)=Nc2cccc3cnccc23)cc1 [1-(4-acetylphenyl)-3-(5-isoquinolinyl)thiourea], the IC50 was over 50 µM.
COc1ccc(NCC(=O)Nc2cc(S(=O)(=O)N3CCOCC3)ccc2N2CCOCC2)c(OC)c1 [SMR000371196] was tested, and the IC50 was 6.52 µM.
With O=C1SCCC1NC(=O)C(c1ccccc1)c1ccccc1 (centres undefined) [SMR000425361] the IC50 was over 50 µM.
COc1ccc(S(=O)(=O)NCc2c(-c3ccccc3)noc2C)c(OC)c1 showed an IC50 of over 50 µM.
In the case of Cc1ccc(C(=O)ON=C2CCS(=O)(=O)c3sccc32)cc1 [[[7,7-bis(oxidanylidene)-5,6-dihydrothieno[2,3-b]thiopyran-4-ylidene]amino] 4-methylbenzoate], the IC50 is reported as 3.46 µM.
O=C(Cc1cccs1)Nc1nnc(CCc2ccccc2)s1 [MLS000064221] was tested, and the IC50 was over 50 µM.
With O=C1OC(Nc2ccc(F)c([N+](=O)[O-])c2)c2ccccc21 (centres undefined) [SMR000434389] the IC50 was over 50 µM.
Work on O=C(NN=Cc1ccccc1C(=O)O)c1ccccc1Br [MLS000774668] yielded an IC50 of over 50 µM.
In the case of CC(C)c1csc(CN2CCCC(CCC(=O)NCc3ccccc3F)C2)n1 (centres undefined) [N-[(2-fluorophenyl)methyl]-3-[1-[(4-propan-2-yl-1,3-thiazol-2-yl)methyl]piperidin-3-yl]propanamide], the IC50 is reported as over 50 µM.
Work on Brc1cccc(CN=Nc2nnn[nH]2)c1 [SMR000279292] yielded an IC50 of over 50 µM.
For O=C(Oc1cncc(Cl)c1)c1ccco1, the IC50 was 0.741 µM.
Cc1cccc(OCC(O)CN2CC3(C)CC2CC(C)(C)C3)c1 (centres undefined) [SMR000249047] was tested, and the IC50 was over 50 µM.
